Reference: patent US20220380347A1, “INHIBITORS OF CYSTEINE PROTEASES AND METHODS OF USE THEREOF” (Pardes Biosciences, Inc., priority 2020, published 2022)
Read-outs that look alike come from different tables or passages of the source.

What was measured:
229E Mpro = 229E Mpro (Human coronavirus 229E, UniProt P0C6X1); assay: 229E Mpro enzymatic assay (standard methods, SARS-CoV2 Mpro assay given as exemplary); format: biochemical, human coronavirus (HCov) 229E
In short: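 IC50 for 229E Mpro by standard methods; exemplary SARS-CoV-2 protocol used C-His6-tagged Mpro from E. coli, 25 nM enzyme, 25 μM substrate (Km 13.5 μM), in Tris-HCl pH 7.3, NaCl, EDTA, TCEP, 0.1% BSA. Inhibition normalised to no-compound and full-effect controls; four-parameter fit.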

[1] = biological target: COVID-19 (nCoV-2019, SARS-CoV2) Mpro (Severe acute respiratory syndrome coronavirus 2, UniProt P0DTD1); assay: COVID-19 (nCoV-2019, SARS-CoV2) Mpro enzymatic assay; format: biochemical; conditions: 25 nM Mpro, 25 μM substrate; read-out: COVID-19 Mpro IC50
HCoV 229E = HCoV 229E cytopathic effect (CPE) assay, CellTiter Glo; format: cell-based, human coronavirus (HCov) 229E; conditions: protection of virus-induced CPE
HCov OC43 = assay: HCoV OC43 cytopathic effect (CPE) assay, CellTiter Glo; format: cell-based, human coronavirus (HCov) OC43; conditions: Betacoronavirus 1, OC43, read-out: OC43 IC50 (uM) MEDIAN, median
[2] = Cytotoxicity in parallel to the 229E CPE assay, without virus infection, CellTiter Glo; conditions: 229E CC50, without virus infection
Experimental: Reagents and instruments used in this assay include luminescent cell viability assay kit CellTiter Glo (Promega) and Microplate Reader Synergy2 (BioTek).
The cytotoxicity of compounds was assessed under the same conditions, but without virus infection, in parallel. Cell viability was measured with CellTiter Glo. The antiviral activity and cytotoxicity of compounds were expressed as % Inhibition and % Viability, respectively, and calculated with formulas.

Chain of 229E Mpro (P0C6X1 2966-3267): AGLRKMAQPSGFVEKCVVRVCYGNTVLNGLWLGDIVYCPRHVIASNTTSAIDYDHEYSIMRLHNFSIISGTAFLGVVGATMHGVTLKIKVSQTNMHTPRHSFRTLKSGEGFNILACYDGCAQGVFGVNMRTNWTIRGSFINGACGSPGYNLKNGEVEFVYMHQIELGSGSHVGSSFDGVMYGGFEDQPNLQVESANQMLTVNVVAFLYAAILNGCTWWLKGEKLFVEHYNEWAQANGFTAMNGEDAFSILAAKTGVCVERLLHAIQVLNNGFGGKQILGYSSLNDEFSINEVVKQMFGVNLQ

CC(C)(C)c1ccc(N(C(=O)[C@H]2COCCN2C#N)C(C(=O)NC2CCCCC2)c2cccnc2)cc1 (single isomer, unassigned) [Compound 202 Isomer 2]
EC50 (229E Mpro; read-out: 229E Mpro EC50): < 2 µM
IC50 [1]: < 2 µM
EC50 (HCoV 229E): < 2 µM
IC50 (HCov OC43): < 2 µM
CC50 [2]: > 30 µM

CN1CCN(C#N)C(C(=O)N(c2ccc(C(C)(C)C)cc2)C(C(=O)NC2CCCCC2)c2cccnc2)C1 (single isomer, unassigned) [Compound 217 Isomer 2, N-(4-tert-butylphenyl)-1-cyano-N-[2-(cyclohexylamino)-2-oxo-1-(3-pyridyl)ethyl]-4-methyl-piperazine-2-carboxamide]
EC50 (229E Mpro; 229E Mpro EC50): < 2 µM
IC50 [1]: < 2 µM
EC50 (HCoV 229E; unidentified human coronavirus): < 2 µM
CC50 [2]: > 30 µM

C[C@@H]1CC[C@H](C(=O)N(c2ccc(C(C)(C)C)cc2)C(C(=O)NC2CCCCC2)c2cccnc2)N1C#N (single isomer, unassigned) [Compound 244 Isomer 1]
EC50 (229E Mpro; 229E Mpro EC50): < 2 µM
IC50 [1]: 2 to 10 µM
EC50 (HCoV 229E; unidentified human coronavirus): < 2 µM
CC50 [2]: > 30 µM

CC(C)(C)c1ccc(N(C(=O)[C@H]2C[C@@H](O)CN2C#N)C(C(=O)NC2CCCCC2)c2cccnc2)cc1 (single isomer, unassigned) [Compound 254 Isomer 2]
EC50 (229E Mpro; read-out: 229E Mpro EC50): < 2 µM
IC50 [1]: < 2 µM
IC50 (HCov OC43): < 2 µM
CC50 [2]: > 30 µM

CC(C)(C)c1ccc(N(C(=O)c2c[nH]cn2)C(C(=O)NC2CCCCC2)c2cccnc2C#N)cc1 (centres unmarked) [Compound 100, N-(4-tert-butylphenyl)-N-[1-(2-cyano-3-pyridyl)-2-(cyclohexylamino)-2-oxo-ethyl]-1H-imidazole-5-carboxamide]
EC50 (229E Mpro; 229E Mpro EC50): 2 to 10 µM
IC50 [1]: 10 to 30 µM
EC50 (HCoV 229E; unidentified human coronavirus): 2 to 10 µM
CC50 [2]: > 30 µM

CC(C)(C)c1ccc(N(C(=O)c2cnc[nH]2)C(C(=O)NC2CCCCC2)c2cncnc2C#N)cc1 (centres unmarked) [Compound 103, N-(4-(tert-butyl)phenyl)-N-(1-(4-cyanopyrimidin-5-yl)-2-(cyclohexylamino)-2-oxoethyl)-1H-imidazole-5-carboxamide]
EC50 (229E Mpro; 229E Mpro EC50): 2 to 10 µM
IC50 [1]: 10 to 30 µM
EC50 (HCoV 229E; unidentified human coronavirus): 10 to 30 µM
CC50 [2]: > 30 µM

CC(C)(C)c1ccc(C(C(=O)c2cnc[nH]2)C(C(=O)NC2CCCCC2)c2nccnc2C#N)cc1 (centres unmarked) [Compound 105]
EC50 (229E Mpro; 229E Mpro EC50): 10 to 30 µM
IC50 [1]: > 30 µM
EC50 (HCoV 229E; unidentified human coronavirus): 2 to 10 µM
CC50 [2]: > 30 µM

Cc1nnsc1C(C(=O)NC1CCCCC1)N(C(=O)c1cnc[nH]1)c1ccc(C(C)(C)C)cc1 (centres unmarked) [Compound 109]
EC50 (229E Mpro; 229E Mpro EC50): 2 to 10 µM
IC50 [1]: > 30 µM
EC50 (HCoV 229E; unidentified human coronavirus): 2 to 10 µM
CC50 [2]: > 30 µM

CC(C)(C)c1ccc(N(C(=O)c2cnc[nH]2)C(C(=O)NC2CCCCC2)c2cccnc2)c(C#N)n1 (centres unmarked) [Compound 117]
EC50 (229E Mpro; 229E Mpro EC50): 2 to 10 µM
IC50 [1]: > 30 µM
EC50 (HCoV 229E; unidentified human coronavirus): 2 to 10 µM
CC50 [2]: > 30 µM

CC(C)(C)c1ccc(N(C(=O)c2nsnc2Cl)C(C(=O)NC2CCCCC2)c2cccnc2)cc1 (centres unmarked) [Compound 123, N-(4-(tert-butyl)phenyl)-4-chloro-N-(2-(cyclohexylamino)-2-oxo-1-(pyridin-3-yl)ethyl)-1,2,5-thiadiazole-3-carboxamide]
EC50 (229E Mpro; 229E Mpro EC50): < 2 µM
IC50 [1]: < 2 µM
EC50 (HCoV 229E; unidentified human coronavirus): < 2 µM
CC50 [2]: > 30 µM

CC(C)(C)c1ccc(N(C(=O)c2nccnc2C#N)C(C(=O)NC2CCCCC2)c2cccnc2)cc1 (centres unmarked) [Compound 124, N-(4-(tert-butyl)phenyl)-3-cyano-N-(2-(cyclohexylamino)-2-oxo-1-(pyridin-3-yl)ethyl)pyrazine-2-carboxamide]
EC50 (229E Mpro; 229E Mpro EC50): 10 to 30 µM
IC50 [1]: > 30 µM
EC50 (HCoV 229E; unidentified human coronavirus): 10 to 30 µM
CC50 [2]: > 30 µM

CC(C)(C)c1ccc(N(C(=O)C2CN(C#N)C2)C(C(=O)NC2CCCCC2)c2cccnc2)cc1 (centres unmarked) [Compound 125, N-(4-tert-butylphenyl)-1-cyano-N-[2-(cyclohexylamino)-2-oxo-1-(3-pyridyl)ethyl]azetidine-3-carboxamide]
EC50 (229E Mpro; 229E Mpro EC50): 10 to 30 µM
IC50 [1]: 10 to 30 µM
EC50 (HCoV 229E; unidentified human coronavirus): 2 to 10 µM
CC50 [2]: 10 to 30 µM

CC(C)(O)CNC(=O)C(c1cccnc1)N(C(=O)[C@H]1CCCN1C#N)c1ccc(C(C)(C)C)cc1 (some centres unmarked) [Compound 1119]
EC50 (229E Mpro; 229E Mpro EC50): < 2 µM
IC50 [1]: 2 to 10 µM
EC50 (HCoV 229E; unidentified human coronavirus): 2 to 10 µM
IC50 (HCov OC43): 2 to 10 µM
